Data reported in PubChem BioAssay (NCI).
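Protocol summary: plate cells (96-well), add compound at 5 concentrations, incubate 48 h, interpolate endpoints linearly. TGI denotes the concentration required for complete inhibition of growth.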

Tests used:
Assay in all cases: NCI anticancer screen, dose series, 48 h
786-0 renal = tested on: 786-0 renal
A498 renal = tested on: A498 renal
A549 NSCLC = tested on: A549 NSCLC
ACHN renal = tested on: ACHN renal
BT-549 breast = tested on: BT-549 breast
CAKI-1 renal = tested on: CAKI-1 renal
CCRF-CEM leukemia = tested on: CCRF-CEM leukemia
COLO 205 colon = tested on: COLO 205 colon
DU-145 prostate = tested on: DU-145 prostate
EKVX NSCLC = tested on: EKVX NSCLC
HCC-2998 colon = tested on: HCC-2998 colon
HCT-116 colon = tested on: HCT-116 colon
HCT-15 colon = tested on: HCT-15 colon
HL-60(TB) leukemia = tested on: HL-60(TB) leukemia
HOP-62 NSCLC = tested on: HOP-62 NSCLC
HOP-92 NSCLC = tested on: HOP-92 NSCLC
HS 578T breast = tested on: HS 578T breast
HT29 colon = tested on: HT29 colon
IGROV1 ovarian = tested on: IGROV1 ovarian
K-562 leukemia = tested on: K-562 leukemia
KM12 colon = tested on: KM12 colon
LOX IMVI melanoma = tested on: LOX IMVI melanoma
M14 melanoma = tested on: M14 melanoma
MALME-3M melanoma = tested on: MALME-3M melanoma
MCF7 breast = tested on: MCF7 breast
MDA-MB-231 breast = tested on: MDA-MB-231 breast
MDA-MB-435 = tested on: MDA-MB-435
MDA-N = tested on: MDA-N
MOLT-4 leukemia = tested on: MOLT-4 leukemia
NCI-H226 lung = tested on: NCI-H226 lung
NCI-H23 lung = tested on: NCI-H23 lung
NCI-H460 lung = tested on: NCI-H460 lung
NCI-H522 lung = tested on: NCI-H522 lung
OVCAR-3 ovarian = tested on: OVCAR-3 ovarian
OVCAR-5 ovarian = tested on: OVCAR-5 ovarian
OVCAR-8 ovarian = tested on: OVCAR-8 ovarian
PC-3 prostate = tested on: PC-3 prostate
RPMI-8226 leukemia = tested on: RPMI-8226 leukemia
RXF 393 renal = tested on: RXF 393 renal
SF-268 CNS = tested on: SF-268 CNS
SF-295 CNS = tested on: SF-295 CNS
SF-539 CNS = tested on: SF-539 CNS
SK-MEL-2 melanoma = tested on: SK-MEL-2 melanoma
SK-MEL-28 melanoma = tested on: SK-MEL-28 melanoma
SK-MEL-5 melanoma = tested on: SK-MEL-5 melanoma
SK-OV-3 ovarian = tested on: SK-OV-3 ovarian
SN12C renal = tested on: SN12C renal
SNB-19 CNS = tested on: SNB-19 CNS
SNB-75 CNS = tested on: SNB-75 CNS
SR leukemia = tested on: SR leukemia
SW-620 colon = tested on: SW-620 colon
T-47D breast = tested on: T-47D breast
TK-10 renal = tested on: TK-10 renal
U251 CNS = tested on: U251 CNS
UACC-257 melanoma = tested on: UACC-257 melanoma
UACC-62 melanoma = tested on: UACC-62 melanoma
UO-31 renal = tested on: UO-31 renal
NCI/ADR-RES ovarian = tested on: NCI/ADR-RES ovarian
OVCAR-4 ovarian = tested on: OVCAR-4 ovarian

With `COc1cccc(C(NC2=NCCC=N2)c2cc3c(cc2O)OCO3)c1O` (configuration not stated) the TGI (786-0 renal) was 25.6 µM, the TGI (A498 renal) was 78.8 µM and the TGI (A549 NSCLC) was > 100 µM. For the same molecule, the TGI (ACHN renal) was > 100 µM, the TGI (BT-549 breast) was 33.3 µM and the TGI (CAKI-1 renal) was > 100 µM. For the same molecule, the TGI (CCRF-CEM leukemia) was 32.8 µM, the TGI (COLO 205 colon) was > 100 µM and the TGI (DU-145 prostate) was > 100 µM. For the same molecule, the TGI (EKVX NSCLC) was > 100 µM, the TGI (HCC-2998 colon) was 46.9 µM and the TGI (HCT-116 colon) was 62.5 µM. It also gave a TGI (HCT-15 colon) of 27.7 µM, a TGI (HL-60(TB) leukemia) of 23.3 µM and a TGI (HOP-62 NSCLC) of 55.5 µM. For the same molecule, the TGI (HOP-92 NSCLC) was 77.5 µM, the TGI (HS 578T breast) was 79.7 µM and the TGI (HT29 colon) was > 100 µM. For the same molecule, the TGI (IGROV1 ovarian) was > 100 µM, the TGI (K-562 leukemia) was 40.6 µM and the TGI (KM12 colon) was > 100 µM. For the same molecule, the TGI (LOX IMVI melanoma) was 41.2 µM, the TGI (M14 melanoma) was > 100 µM and the TGI (MALME-3M melanoma) was > 100 µM. It also gave a TGI (MCF7 breast) of 35.3 µM, a TGI (MDA-MB-231 breast) of 59.9 µM and a TGI (MDA-MB-435) of 88.8 µM. For the same molecule, the TGI (MDA-N) was > 100 µM, the TGI (MOLT-4 leukemia) was 63 µM and the TGI (NCI-H226 lung) was > 100 µM. The TGI (NCI-H23 lung) was > 100 µM, the TGI (NCI-H460 lung) was > 100 µM and the TGI (NCI-H522 lung) was 40.2 µM. For the same molecule, the TGI (OVCAR-3 ovarian) was 59.7 µM, the TGI (OVCAR-5 ovarian) was > 100 µM and the TGI (OVCAR-8 ovarian) was 25.4 µM. The TGI (PC-3 prostate) was > 100 µM, the TGI (RPMI-8226 leukemia) was 50 µM and the TGI (RXF 393 renal) was 63 µM. The TGI (SF-268 CNS) was > 100 µM, the TGI (SF-295 CNS) was > 100 µM and the TGI (SF-539 CNS) was 46.8 µM. The TGI (SK-MEL-2 melanoma) was 72.5 µM, the TGI (SK-MEL-28 melanoma) was > 100 µM and the TGI (SK-MEL-5 melanoma) was > 100 µM. The TGI (SK-OV-3 ovarian) was > 100 µM, the TGI (SN12C renal) was 41.4 µM and the TGI (SNB-19 CNS) was > 100 µM. For the same molecule, the TGI (SNB-75 CNS) was 93.8 µM, the TGI (SR leukemia) was 34.9 µM and the TGI (SW-620 colon) was 41.8 µM. For the same molecule, the TGI (T-47D breast) was 63.5 µM, the TGI (TK-10 renal) was > 100 µM and the TGI (U251 CNS) was 31.9 µM. The TGI (UACC-257 melanoma) was > 100 µM, the TGI (UACC-62 melanoma) was 59 µM and the TGI (UO-31 renal) was > 100 µM.
`COc1ccc(-n2c(C)nc3ccc(NC4OC(CO)C(O)C(O)C4O)cc3c2=O)cc1` (configuration not stated) was tested, and the TGI (786-0 renal) was > 100 µM, the TGI (A498 renal) was > 100 µM and the TGI (ACHN renal) was > 100 µM. The TGI (BT-549 breast) was > 100 µM, the TGI (CAKI-1 renal) was > 100 µM and the TGI (COLO 205 colon) was > 100 µM. The TGI (DU-145 prostate) was > 100 µM, the TGI (EKVX NSCLC) was > 100 µM and the TGI (HCC-2998 colon) was > 100 µM. For the same molecule, the TGI (HCT-116 colon) was > 100 µM, the TGI (HCT-15 colon) was > 100 µM and the TGI (HL-60(TB) leukemia) was > 100 µM. For the same molecule, the TGI (HOP-62 NSCLC) was > 100 µM, the TGI (HS 578T breast) was > 100 µM and the TGI (HT29 colon) was > 100 µM. For the same molecule, the TGI (IGROV1 ovarian) was > 100 µM, the TGI (K-562 leukemia) was > 100 µM and the TGI (KM12 colon) was > 100 µM. The TGI (LOX IMVI melanoma) was > 100 µM, the TGI (MALME-3M melanoma) was > 100 µM and the TGI (MCF7 breast) was > 100 µM. For the same molecule, the TGI (MDA-MB-231 breast) was > 100 µM, the TGI (MDA-MB-435) was > 100 µM and the TGI (MDA-N) was > 100 µM. For the same molecule, the TGI (MOLT-4 leukemia) was > 100 µM, the TGI (NCI-H226 lung) was > 100 µM and the TGI (NCI-H23 lung) was > 100 µM. The TGI (NCI-H460 lung) was > 100 µM, the TGI (NCI-H522 lung) was > 100 µM and the TGI (NCI/ADR-RES ovarian) was > 100 µM. For the same molecule, the TGI (OVCAR-3 ovarian) was > 100 µM, the TGI (OVCAR-4 ovarian) was > 100 µM and the TGI (OVCAR-5 ovarian) was > 100 µM. The TGI (OVCAR-8 ovarian) was > 100 µM, the TGI (PC-3 prostate) was > 100 µM and the TGI (RPMI-8226 leukemia) was > 100 µM. For the same molecule, the TGI (RXF 393 renal) was > 100 µM, the TGI (SF-268 CNS) was > 100 µM and the TGI (SF-295 CNS) was > 100 µM. For the same molecule, the TGI (SK-MEL-2 melanoma) was > 100 µM, the TGI (SK-MEL-28 melanoma) was > 100 µM and the TGI (SK-MEL-5 melanoma) was > 100 µM. The TGI (SN12C renal) was > 100 µM, the TGI (SNB-19 CNS) was > 100 µM and the TGI (SNB-75 CNS) was > 100 µM. The TGI (SR leukemia) was > 100 µM, the TGI (SW-620 colon) was > 100 µM and the TGI (T-47D breast) was > 100 µM. The TGI (TK-10 renal) was > 100 µM, the TGI (U251 CNS) was > 100 µM and the TGI (UACC-257 melanoma) was > 100 µM. For the same molecule, the TGI (UACC-62 melanoma) was > 100 µM and the TGI (UO-31 renal) was > 100 µM.
For `O=[N+]([O-])c1cc(Cc2cc([N+](=O)[O-])c3cccnc3c2O)c(O)c2ncccc12`, the TGI (786-0 renal) was > 54.3 µM, the TGI (A498 renal) was 31.8 µM and the TGI (A549 NSCLC) was 30.8 µM. The TGI (ACHN renal) was 41.3 µM, the TGI (BT-549 breast) was > 77.7 µM and the TGI (CAKI-1 renal) was 41.3 µM. It also gave a TGI (CCRF-CEM leukemia) of 6.39 µM, a TGI (COLO 205 colon) of 56 µM and a TGI (DU-145 prostate) of 54 µM. It also gave a TGI (EKVX NSCLC) of 61.9 µM, a TGI (HCT-116 colon) of 16.9 µM and a TGI (HCT-15 colon) of 66.4 µM. It also gave a TGI (HL-60(TB) leukemia) of 5.35 µM, a TGI (HOP-62 NSCLC) of 42.4 µM and a TGI (HOP-92 NSCLC) of 37.1 µM. For the same molecule, the TGI (HS 578T breast) was 52.1 µM, the TGI (HT29 colon) was > 73.1 µM and the TGI (IGROV1 ovarian) was 17.2 µM. The TGI (K-562 leukemia) was > 100 µM, the TGI (KM12 colon) was 25.8 µM and the TGI (LOX IMVI melanoma) was > 66.2 µM. It also gave a TGI (M14 melanoma) of 30.1 µM, a TGI (MALME-3M melanoma) of 25.5 µM and a TGI (MCF7 breast) of 29.6 µM. The TGI (MDA-MB-231 breast) was 25.9 µM, the TGI (MDA-MB-435) was 32.7 µM and the TGI (MDA-N) was > 80 µM. For the same molecule, the TGI (MOLT-4 leukemia) was > 30.4 µM, the TGI (NCI-H226 lung) was 43.5 µM and the TGI (NCI-H23 lung) was > 100 µM. For the same molecule, the TGI (NCI-H460 lung) was 9.4 µM, the TGI (NCI-H522 lung) was 38 µM and the TGI (NCI/ADR-RES ovarian) was 54.1 µM. For the same molecule, the TGI (OVCAR-3 ovarian) was 6.71 µM, the TGI (OVCAR-4 ovarian) was > 74.1 µM and the TGI (OVCAR-5 ovarian) was 76.1 µM. For the same molecule, the TGI (OVCAR-8 ovarian) was > 42.9 µM, the TGI (PC-3 prostate) was 23.4 µM and the TGI (RPMI-8226 leukemia) was 41.4 µM. The TGI (RXF 393 renal) was 18 µM, the TGI (SF-268 CNS) was > 43.8 µM and the TGI (SF-295 CNS) was 37.2 µM. The TGI (SF-539 CNS) was > 96 µM, the TGI (SK-MEL-2 melanoma) was 29.6 µM and the TGI (SK-MEL-28 melanoma) was 37.4 µM. For the same molecule, the TGI (SK-MEL-5 melanoma) was 24.5 µM, the TGI (SK-OV-3 ovarian) was 37.5 µM and the TGI (SN12C renal) was > 65.3 µM. The TGI (SNB-19 CNS) was 51.2 µM, the TGI (SNB-75 CNS) was 24.9 µM and the TGI (SW-620 colon) was > 67.9 µM. It also gave a TGI (T-47D breast) of 18 µM, a TGI (TK-10 renal) of 48.3 µM and a TGI (U251 CNS) of 19.1 µM. The TGI (UACC-257 melanoma) was 14.1 µM, the TGI (UACC-62 melanoma) was 27.6 µM and the TGI (UO-31 renal) was 21.8 µM.
